Test results: US10953015B2, “Use of adenosine receptor signaling to regulate P-gp function” (CORNELL UNIVERSITY, priority 2016, dated 2021)

Assays:
[1] = molecular target: T1, P-gp (Homo sapiens, UniProt P08183); assay: Rho123 uptake assay in primary human brain endothelial cells (HBMVEC); assay type: cell-based; settings: agonist 1 μM, Rho123 2.5 μM
T1 construct: in human primary brain endothelial cells, HBMVEC, high P-gp expression was observed; host or cells: HBMVEC (primary human brain endothelial cells)
Procedure: Human brain endothelial cells and primary brain endothelial cells were plated onto 48-well plates until 100% confluence was reached, and media were replaced with fresh media containing Rho123 (2.5 μM) with different concentrations of Lexiscan®, NECA, or PSC833. Reaction was halted by adding 250 μl of ice-cold PBS. Plate was washed with 250 μl of ice-cold PBS 3 times and lysed with lysis buffer. Each sample was analyzed using Synergy Fluometer (Biotek), with excitation at 488 nm and emission at 523 nm. Concentration of Rho123 was analyzed using standard curve created by serial dilution of Rho123. Final concentration of Rho123 was normalized using protein concentration of lysate measured using Bradford assay (Bio-Rad). For microscopic analysis of Rho123 uptake, cells were cultured on coverslip and Rho123 was treated with or without Lexiscan® or NECA with DMSO as control. Reaction was terminated by adding ice-cold PBS and washed with ice-cold PBS 3 times. Cells were fixed with PFA and costained with anti-human P-gp. Cells were visualized with a Zeiss fluorescent microscope and captured with axiovision software. FIG. 4G is a schematic illustration of the Rho123 uptake assay.

[2] = tested on: P-gp; assay: Ubiquitination of P-gp in primary human brain endothelial cells (immunoprecipitation, IFA); assay type: cell-based; settings: 15 minutes
Procedure: FIG. 10A is a western blot showing immunoprecipitation analysis of ubiquitination of P-gp in human primary brain endothelial cells upon activation with Lexiscan® for 15 minutes. P-gp was pulled down with an anti-P-gp antibody and immunoblotted with an anti-ubiquitin antibody. FIG. 10B are immunofluorescence microscopy images depicting ubiquitination of P-gp in human primary brain endothelial cells upon activation with Lexiscan® for 15 minutes. Cells were fixed, permeabilized, and stained with an anti-P-gp (green) and anti-ubiquitin (red) antibody. Nucleus was counterstained with DAPI (blue). The scale bar indicates 25 μm. FIG. 10C is a schematic diagram depicting the mechanism of P-gp down-regulation by Lexiscan®. Upon activation of A2A AR, P-gp is cleaved by MMP9 and secreted to the extracellular space (a), or ubiquitinated and digested by proteasome (b), or can relocate from the soluble fraction to the insoluble fraction (c). These mechanisms may occur independently or in combination.
4 G Sepharose beads were purchased from Invitrogen and incubated with human P-gp antibody (BD Biosciences) overnight at 4° C. using a rocking shaker. Beads were washed twice using lysis buffer containing protease inhibitor, and lysates from primary brain endothelial cells were incubated overnight at 4° C. using a rocking shaker. […]

[3] = tested on: MMP9; assay: MMP9 in mouse brain endothelial cells after intravenous injection (IFA); assay type: in vivo; settings: 0.05 mg/kg i.v.; 5 minutes
Procedure: Vehicle control (DMSO) or 0.05 mg/kg of Lexiscan® was injected intravenously into mice. Five minutes later, mice were sacrificed and frozen sections of the brain were stained with anti-MMP9 (red) or anti-GLUT-1 (green) antibodies. Nucleus was counterstained with DAPI (blue). The scale bar indicates 50 μm.

[4] = tested on: P-gp; assay: P-gp expression in Caco-2 human tumor cell line (IFA MFI, western blot); assay type: cell-based; settings: 1 μM for 30 minutes (IFA), 1, 0.5, 0.1 μM (western blot)
Procedure: FIG. 19A are fluorescence microscopy images of Caco-2 cells (originally isolated from a human primary colonic tumor) grown on coverslips and treated with Lexiscan® (1 μM) or A1193 (1 μM), or DMSO (vehicle) control for 30 minutes. Next, cells were fixed, permeabilized, and stained with an antibody to P-gp. After washing, cells were mounted with DAPI for nuclear staining. FIG. 19B is a graph of the MFI of P-gp. FIG. 19C is a graph of densitometric analysis of a western blot of Caco-2 cells treated with Lexiscan® in varying concentrations (1, 0.5, and 0.1 μM). Densitometric analysis was performed to quantify the amount of P-gp in western blot. Statistics: two tailed student's t test for FIG. 19B, *<0.5.
Applicants also evaluated whether A2A AR agonists can modulate P-gp expression in a human tumor cell line, Caco-2 cells. Briefly, Caco-2 cells (originally isolated from a human tumor) were grown on coverslips and treated with Lexiscan®, A1193, or vehicle control for 30 minutes. Cells were then fixed, permeabilized, and stained with an antibody to P-gp. After washing, cells were mounted with DAPI for nuclear staining (FIG. 19A). The mean fluorescence intensity (MFI) of P-gp was quantified and graphed in FIG. 19B.

[5] = tested on: P-gp; assay: P-gp expression in HEK293T kidney cell line (IFA MFI, western blot); assay type: cell-based, human; settings: Lexiscan® 1, 0.5, 0.1 μM
Procedure: FIGS. 20A and 20B illustrate that Lexiscan® downregulates P-gp expression in the kidney cell line HEK293T while treatment with antagonist SCH58261 blocks Lexiscan®'s effects. […] HEK293T cells were grown to confluency on coverslips, and treated with varying concentrations of Lexiscan® (1, 0.5, and 0.1 μM) for 15 minutes. Cells were permeabilized and then stained with an antibody to P-gp (C219) and visualized under a fluorescent microscope. FIG. 20B is a graph of the MFI of P-gp in FIG. 20A. DMSO vs. Lexiscan® (“Lex”), *=P<0.05, Lexiscan® (“Lex”)+SCH58261 (“SCH”), ****P<0.0001.
HEK293T transformed kidney cells were treated with varying concentration of Lexiscan® (1, 0.5, 0.1 μM). Cells were lysed with lysis buffer ([…]), containing protease inhibitor cocktail. Samples were loaded on 7% SDS PAGE at 100V for 1 hour and transferred to nitrocellulose paper. The intensity of bands were analyzed by densitometry and plotted as a graph. Statistics: two-tailed student's t test: *=P<0.5, ****=P<0.0001.
Applicants investigated whether A2A AR agonists could modulate P-gp expression in the HEK293T human kidney cell line. HEK293T cells were grown to confluency on coverslips and treated with varying concentrations of Lexiscan, Lexiscan® plus the A2A antagonist (SCH58261), or vehicle control for 15 minutes. Cells were then permeabilized, stained with an antibody to P-gp, and visualized under a fluorescent microscope (FIG. 20A). The mean fluorescence intensity (MFI) of P-gp was quantified and graphed in FIG. 20B.
HEK293T cells were treated with various concentrations of Lexiscan, lysed, loaded onto an SDS-PAGE gel, transferred to a nitrocellulose membrane, and used for western blot analysis.

T1 sequence (P08183 whole entry): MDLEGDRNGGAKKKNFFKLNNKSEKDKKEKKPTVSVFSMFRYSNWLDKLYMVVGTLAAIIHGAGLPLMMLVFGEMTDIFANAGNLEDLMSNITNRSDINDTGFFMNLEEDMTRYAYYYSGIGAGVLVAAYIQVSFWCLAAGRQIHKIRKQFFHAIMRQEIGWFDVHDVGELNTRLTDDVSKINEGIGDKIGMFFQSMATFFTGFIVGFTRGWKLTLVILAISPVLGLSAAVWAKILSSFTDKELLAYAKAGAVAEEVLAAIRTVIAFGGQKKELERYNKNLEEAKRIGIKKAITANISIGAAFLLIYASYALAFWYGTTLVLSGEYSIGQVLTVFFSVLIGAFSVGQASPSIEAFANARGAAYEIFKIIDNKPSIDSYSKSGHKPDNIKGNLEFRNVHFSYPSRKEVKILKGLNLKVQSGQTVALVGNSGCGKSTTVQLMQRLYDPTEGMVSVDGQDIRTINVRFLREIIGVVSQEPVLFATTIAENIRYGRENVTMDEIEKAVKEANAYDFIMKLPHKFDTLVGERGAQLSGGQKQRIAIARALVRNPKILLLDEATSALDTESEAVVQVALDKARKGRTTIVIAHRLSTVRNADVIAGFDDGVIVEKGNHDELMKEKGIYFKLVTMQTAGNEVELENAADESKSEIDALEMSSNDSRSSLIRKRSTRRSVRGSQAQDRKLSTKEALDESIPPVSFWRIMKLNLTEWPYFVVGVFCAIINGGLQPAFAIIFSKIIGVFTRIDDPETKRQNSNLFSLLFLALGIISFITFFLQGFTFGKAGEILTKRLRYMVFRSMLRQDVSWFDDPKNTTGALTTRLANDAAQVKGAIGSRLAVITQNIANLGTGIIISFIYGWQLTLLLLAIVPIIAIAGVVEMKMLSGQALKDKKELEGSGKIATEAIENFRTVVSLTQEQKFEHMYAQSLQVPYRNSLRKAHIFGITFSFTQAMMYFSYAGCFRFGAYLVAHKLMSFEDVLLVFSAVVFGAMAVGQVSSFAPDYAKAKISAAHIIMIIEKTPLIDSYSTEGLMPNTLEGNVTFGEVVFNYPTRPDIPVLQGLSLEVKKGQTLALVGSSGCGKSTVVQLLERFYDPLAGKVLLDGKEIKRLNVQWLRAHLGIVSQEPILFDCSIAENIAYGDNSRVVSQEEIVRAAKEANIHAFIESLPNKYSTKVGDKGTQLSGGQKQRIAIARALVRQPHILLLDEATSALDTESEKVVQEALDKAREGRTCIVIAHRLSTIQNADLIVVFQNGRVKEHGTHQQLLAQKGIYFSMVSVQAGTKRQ

Compound | Rho123 uptake / P-gp function [1] | Ubiquitinylation of P-gp [2] | MMP9 in mouse brain endothelial cells [3] | P-gp expression [4] | P-gp expression (western blot densitometry) [5] | P-gp expression (MFI) ([5]; 15 minutes)
CCNC(=O)[C@H]1O[C@@H](n2cnc3c(N)ncnc32)[C@H](O)[C@@H]1O [NECA, (2S,3S,4R,5R)-5-(6-aminopurin-9-yl)-N-ethyl-3,4-dihydroxyoxolane-2-carboxamide] | showed a trend in P-gp suppression, but it did not reach statistical significance | – | – | – | – | –
CNC(=O)c1cnn(-c2nc(N)c3ncn([C@@H]4O[C@H](CO)[C@@H](O)[C@H]4O)c3n2)c1 [Lexiscan®, 1-[6-amino-9-[(2R,3R,4S,5R)-3,4-dihydroxy-5-(hydroxymethyl)oxolan-2-yl]purin-2-yl]-N-methylpyrazole-4-carboxamide] | – | induced increased ubiquitinylation of P-gp compared with vehicle control | rapid increase of MMP9 | down-regulates P-gp expression in Caco-2 | significantly down-regulated P-gp expression in transformed HEK293T cells | down-regulates P-gp expression in HEK293T cells
